Converted amounts (≈) assume the structure as drawn.
Tests used:
[1] = Cytotoxicity against human C8166 cells by MTT assay; type: cell-based
[2] = system: Human immunodeficiency virus 1; test: Antiviral activity against HIV1 infected in human C8166 cells assessed as inhibition of viral-induced cytopathic effect; type: functional, organism-based; details: Human immunodeficiency virus 1, C8166

SMILES: C[C@@H]1CCC(=O)O[C@@H]2C[C@@]3(C)[C@@H]4[C@@H](O)C[C@H]5C(C)(C)C(=O)CC[C@@]56C[C@@]46C[C@@H](O)[C@]3(C)[C@@H]12 [LANCIFODILACTONE H]
- CC50 [1]: > 200 µg/mL
- EC50 [2]: 16.6 µg/mL (≈ 37.3 µM)

SMILES: C/C(=C/CC[C@@H](C)[C@H]1CC[C@@]2(C)[C@@H]3CC[C@@H](C(C)(C)O)[C@@]4(CCC(=O)O)C[C@@]34CC[C@]12C)C(=O)O [LANCIFOICACID A]
- CC50 [1]: 105 µg/mL (≈ 215 µM)
- EC50 [2]: 16.2 µg/mL (≈ 33.1 µM)

SMILES: C=C(C)[C@@H]1CC[C@@H]2[C@]3(CC[C@]4(C)[C@@H]([C@H](C)CC/C=C(/C)C(=O)O)CC[C@@]24C)C[C@]13CCC(=O)O [NIGRANOIC ACID]
- CC50 [1]: 88 µg/mL (≈ 187 µM)
- EC50 [2]: 10.3 µg/mL (≈ 21.9 µM)

SMILES: Cc1cn([C@H]2C[C@H](N=[N+]=[N-])[C@@H](CO)O2)c(=O)[nH]c1=O [ZIDOVUDINE]
- CC50 [1]: > 200 µg/mL

Source: ChEMBL document CHEMBL1157258, “Triterpenoids from Schisandra lancifolia with anti-HIV-1 activity” (J Nat Prod, 2006)
